BindingDB's records for patent US11530198 (Vyera Pharmaceuticals, 2022)

Key:
Dihydrofolate reductase = target: T1, Dihydrofolate reductase (Homo sapiens, UniProt P00374); experiment: Not found
T1 sequence (P00374 whole entry): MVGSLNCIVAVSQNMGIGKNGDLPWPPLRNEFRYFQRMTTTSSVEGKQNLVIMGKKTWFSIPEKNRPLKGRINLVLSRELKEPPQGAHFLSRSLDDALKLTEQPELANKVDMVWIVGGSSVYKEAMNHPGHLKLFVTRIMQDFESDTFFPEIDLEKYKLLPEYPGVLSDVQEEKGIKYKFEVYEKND

[1] = target: Bifunctional dihydrofolate reductase-thymidylate synthase (Leishmania major, UniProt P07382); experiment: Not found
Chain of Bifunctional dihydrofolate reductase-thymidylate synthase (P07382 whole entry): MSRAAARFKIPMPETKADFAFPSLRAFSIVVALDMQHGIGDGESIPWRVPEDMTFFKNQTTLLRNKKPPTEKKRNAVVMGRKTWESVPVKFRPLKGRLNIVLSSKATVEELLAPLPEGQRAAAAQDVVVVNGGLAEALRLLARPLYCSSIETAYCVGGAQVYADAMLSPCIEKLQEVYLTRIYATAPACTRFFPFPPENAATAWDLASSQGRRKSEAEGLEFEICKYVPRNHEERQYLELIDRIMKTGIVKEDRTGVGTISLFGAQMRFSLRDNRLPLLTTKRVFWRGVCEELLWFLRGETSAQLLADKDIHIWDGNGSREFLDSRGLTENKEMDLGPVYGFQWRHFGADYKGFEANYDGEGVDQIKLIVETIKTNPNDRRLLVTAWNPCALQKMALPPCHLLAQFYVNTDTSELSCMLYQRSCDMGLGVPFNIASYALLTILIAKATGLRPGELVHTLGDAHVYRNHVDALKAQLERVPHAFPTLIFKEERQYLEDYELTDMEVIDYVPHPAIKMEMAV

What does the source list for Nc1ncc(N2CCN(c3ccccc3-c3ccccc3)CC2)c(N)n1 [US11530198, Example 12]?
IC50 (Dihydrofolate reductase): 214 nM; IC50 [1]: 7.41 nM
